# Laboratory results: paper PMC9687798, “Atypical Substrates of the Organic Cation Transporter 1” (Biomolecules, 2022)
# Positions count from the first letter of the chain named. Entries after “also recorded” stand apart in the source; their conditions may differ.
# Key:
# mutant human OCT1 D474N = target: T1, mutant human OCT1 D474N (Homo sapiens, UniProt O15245, D474N); test: Cellular uptake by HEK293 cells overexpressing variant OCT1 D474N; type: cell-based; conditions: p < 0.01
# T1 construct: expressed in transfected cells
# T1 sequence (O15245 1-554 D474N): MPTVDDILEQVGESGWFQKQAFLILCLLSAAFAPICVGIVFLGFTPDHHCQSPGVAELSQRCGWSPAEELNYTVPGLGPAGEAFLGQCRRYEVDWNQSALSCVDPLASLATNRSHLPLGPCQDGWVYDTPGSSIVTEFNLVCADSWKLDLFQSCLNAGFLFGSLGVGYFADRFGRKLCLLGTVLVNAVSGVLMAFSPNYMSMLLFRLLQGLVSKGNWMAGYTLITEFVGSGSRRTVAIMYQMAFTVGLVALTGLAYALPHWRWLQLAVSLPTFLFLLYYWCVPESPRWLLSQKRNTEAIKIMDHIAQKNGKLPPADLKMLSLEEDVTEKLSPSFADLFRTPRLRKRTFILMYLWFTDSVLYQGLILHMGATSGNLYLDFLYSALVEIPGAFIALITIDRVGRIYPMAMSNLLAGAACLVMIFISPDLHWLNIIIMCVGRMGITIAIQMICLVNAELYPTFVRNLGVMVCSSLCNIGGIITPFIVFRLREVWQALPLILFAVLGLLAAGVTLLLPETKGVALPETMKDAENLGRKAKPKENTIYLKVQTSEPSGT
# human OCT1*1 (wild-type) [1] = target: T2, human OCT1*1 (wild-type) (Homo sapiens, UniProt O15245); test: Concentration-dependent uptake (transport kinetics) in HEK293 cells overexpressing OCT1 wild-type; conditions: for Clint (±SEM): intrinsic clearance = ratio of Vmax and KM, OCT1 wild-type
# T2 sequence (O15245 1-554): T1 sequence (O15245 1-554 D474N) with N474D
# wild-type human OCT2 = target: T3, wild-type human OCT2 (Homo sapiens, UniProt O15244); test: Cellular uptake ratio, OCT2-overexpressing HEK293 cells vs empty vector; type: cell-based; conditions: based on ratio uptake data at 1 µM
# T3 sequence (O15244 1-555): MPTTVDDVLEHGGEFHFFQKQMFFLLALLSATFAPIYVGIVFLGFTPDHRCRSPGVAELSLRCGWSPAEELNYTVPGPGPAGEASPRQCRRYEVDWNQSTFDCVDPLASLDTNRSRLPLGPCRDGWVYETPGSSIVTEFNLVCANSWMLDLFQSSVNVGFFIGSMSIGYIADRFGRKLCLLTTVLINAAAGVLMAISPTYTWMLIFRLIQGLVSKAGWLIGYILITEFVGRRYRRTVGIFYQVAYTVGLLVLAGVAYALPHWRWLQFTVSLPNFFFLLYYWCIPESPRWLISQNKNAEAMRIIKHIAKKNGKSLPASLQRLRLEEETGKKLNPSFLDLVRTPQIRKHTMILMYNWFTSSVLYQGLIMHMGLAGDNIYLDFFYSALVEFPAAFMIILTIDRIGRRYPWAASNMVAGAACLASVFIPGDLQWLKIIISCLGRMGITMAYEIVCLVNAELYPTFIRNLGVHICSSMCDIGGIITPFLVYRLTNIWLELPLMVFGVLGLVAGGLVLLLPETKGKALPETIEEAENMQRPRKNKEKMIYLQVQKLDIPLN
# Description: (§1) The wild-type cell lines of OCT1 and OCT2, as well as the variant cell lines OCT1*2 and *3, were generated using the Flp-In system (Thermo Fisher Scientific, Darmstadt, Germany) as described in previous publications. The cell line overexpressing OCT3 was a kind gift from Dr. Koepsell and Dr. Gorbulev (University of Würzburg, Germany). Cells transfected with the empty pcDNA5/FRT vector were used for the transport experiments as a control cell line. All cells were cultured approximately up to passage 30.
# (§2) Forty-eight hours before the transport experiments, 600,000 cells were plated on 12-well plates pre-coated with poly-D-lysine and incubated at 37 °C with 5% CO2. The prepared 12-well plate with cells was positioned on a heating plate pre-warmed to 37 °C. After removing the medium, the cells were washed with 37 °C HBSS+ (10 mM HEPES in Hank’s balanced salt solution, pH 7.4). Then, one pre-defined concentration of a substrate was added to each well. The incubation period was stopped by adding 2 mL of 4 °C HBSS+ and removing the cells from the heating plate. The cells were washed twice with 4 °C HBSS+. For cell lysis, the cells were incubated for 15 min with 500 µL of 80% acetonitrile (LGC Standards, Wesel, Germany), which contained a respective internal standard (Table 1).
# (§3) For concentration-dependent transport, the cells were incubated with defined substrate concentrations (0.1, 1, 10, 30, 100, 300, 600, 1000 µM) for the respective pre-defined incubation times. […] The uptake by a transporter was normalised to the uptake by empty vector-transfected cells. […] The results of transport experiments were normalized to the total protein concentration per well. Total protein quantification was performed using a bicinchoninic acid assay with bovine serum albumin as standard.
# (§4) The ratios of cellular uptake were calculated by dividing the total uptake of transporter-overexpressing cells by the total uptake into empty vector transfected cells. The concentration-dependent cellular net uptake was used for analysis of transport kinetics by subtracting for each substrate concentration the uptake of empty vector-transfected cells from the uptake of transporter-overexpressing cells. […] The intrinsic clearance Clint was expressed with the ratio of Vmax and KM.
# human OCT1*1 (wild-type) [2] = target: T2, human OCT1*1 (wild-type); test: Cellular uptake ratio, OCT1-overexpressing HEK293 cells vs empty vector; type: cell-based; conditions: based on ratio uptake data at 1 µM
# Description: as §1, §2, §3, §4
# OCT3 = target: T4, OCT3 (Homo sapiens, UniProt O75751); test: Cellular uptake ratio, OCT3-overexpressing HEK293 cells vs empty vector; type: cell-based; conditions: based on ratio uptake data at 1 µM
# T4 construct: expressed in transfected cells; host or cells: HEK293, stably transfected; gift from Dr. Koepsell and Dr. Gorbulev (University of Würzburg)
# T4 sequence (O75751 1-556): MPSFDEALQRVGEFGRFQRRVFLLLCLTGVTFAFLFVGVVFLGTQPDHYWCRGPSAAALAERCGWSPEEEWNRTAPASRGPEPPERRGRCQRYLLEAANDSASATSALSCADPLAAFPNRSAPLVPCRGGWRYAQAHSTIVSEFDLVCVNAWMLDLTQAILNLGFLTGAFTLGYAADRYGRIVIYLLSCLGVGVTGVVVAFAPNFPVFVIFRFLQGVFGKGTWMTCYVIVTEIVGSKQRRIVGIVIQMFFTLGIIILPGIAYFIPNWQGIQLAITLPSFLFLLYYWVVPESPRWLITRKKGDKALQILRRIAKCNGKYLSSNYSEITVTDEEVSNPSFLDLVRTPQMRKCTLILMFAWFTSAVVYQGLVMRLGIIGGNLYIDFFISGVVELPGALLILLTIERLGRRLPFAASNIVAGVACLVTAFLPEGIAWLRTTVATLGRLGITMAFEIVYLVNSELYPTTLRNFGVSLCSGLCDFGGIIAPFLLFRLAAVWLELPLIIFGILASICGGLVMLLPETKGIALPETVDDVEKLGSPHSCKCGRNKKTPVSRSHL
# Description: as §1, §2, §3, §4
# OCT1*3 (R61C) = target: T5, OCT1*3 (R61C) (Homo sapiens, UniProt O15245, R61C); test: Cellular uptake by HEK293 cells overexpressing OCT1*3; type: cell-based; conditions: 1 µM substance
# T5 construct: expressed in transfected cells
# T5 sequence (O15245 1-554 R61C): T1 sequence (O15245 1-554 D474N) with R61C, N474D
# Description: as §1, with “The transport experiments were performed using HEK293 cells that overexpress human OCT1*1 (wild-type), mutant human OCT1 D474N, variant human OCT1*2 (M420del) and OCT1*3 (R61C), wild-type human OCT2, and OCT3 after stable transfection. The wild-type” for “The wild-type”
# as §2
# (§5) For time-dependent transport, the cells were incubated with 1 µM of the substance for 15 to 240 s to determine the linear uptake range ≥ 15 s. For concentration-dependent transport, the cells were incubated with defined substrate concentrations (0.1, 1, 10, 30, 100, 300, 600, 1000 µM) for the respective pre-defined incubation times. […]; 100 µM) and pre-defined incubation times. The uptake by a transporter was normalised to the uptake by empty vector-transfected cells. […] The results of transport experiments were normalized to the total protein concentration per well. Total protein quantification was performed using a bicinchoninic acid assay with bovine serum albumin as standard.
# (§6) The ratios of cellular uptake were calculated by dividing the total uptake of transporter-overexpressing cells by the total uptake into empty vector transfected cells. The concentration-dependent cellular net uptake was used for analysis of transport kinetics by subtracting for each substrate concentration the uptake of empty vector-transfected cells from the uptake of transporter-overexpressing cells. The transport kinetic parameters Vmax and KM were determined with non-linear regression by using the Michaelis–Menten equation for net uptake data and by using the Michaelis–Menten equation extended with a linear term for total uptake data (GraphPad Prism 5.01, GraphPad software, LA Jolla, CA, USA). The intrinsic clearance Clint was expressed with the ratio of Vmax and KM.
# [3] = test system: empty vector-transfected HEK cells; test: Concentration-dependent uptake into empty vector-transfected HEK293 cells; type: cell-based, human; conditions: uptake into empty vector-transfected cells
# Description: as §1, with “The transport experiments were performed using HEK293 cells that overexpress human OCT1*1 (wild-type), mutant human OCT1 D474N, variant human OCT1*2 (M420del) and OCT1*3 (R61C), wild-type human OCT2, and OCT3 after stable transfection. The wild-type” for “The wild-type”
# as §2, §5, §6
# [4] = as above; type: cell-based, human; conditions: human, empty vector (pcDNA5/FRT)-transfected HEK293 cells, pH 7.4; empty vector-transfected HEK cells; read-out: intrinsic clearance
# Description: as §1, with “The transport experiments were performed using HEK293 cells that overexpress human OCT1*1 (wild-type), mutant human OCT1 D474N, variant human OCT1*2 (M420del) and OCT1*3 (R61C), wild-type human OCT2, and OCT3 after stable transfection. The wild-type” for “The wild-type”
# as §2, §5, §6
Compound,enhancement of uptake by OCT1 D474N compared to wild-type (mutant human OCT1 D474N),"OCT1 substrate classification from concentration-dependent uptake (human OCT1*1 (wild-type) [1]; good >5, poor 1–5, non-substrate <1 µL/mg protein/min or uptake not above empty vector)",OCT2 transport category (wild-type human OCT2),OCT1 transport category (human OCT1*1 (wild-type) [2]),OCT3 transport category (OCT3),uptake by OCT1*3 in comparison to OCT1*1 (OCT1*3 (R61C)),Clint (±SEM) (human OCT1*1 (wild-type) [1]),Clint (±SEM) (human OCT1*1 (wild-type) [1]; listed as methyldopa),Km [3],Vmax [3],microsomal CLint [4]
"C[N+](C)(C)[C@@H](Cc1c[nH]c2ccccc12)C(=O)[O-] [Hypaphorine, hypaphorine]",two-fold enhancement; also recorded: significantly increased uptake by the variant OCT1 D474N,linear increase in total uptake of both cell lines,"0 (no transport by OCT1, OCT2, and OCT3 occurred (i.e., no kinetic parameters or uptake ratio <2 without significance))","0 (no transport by OCT1, OCT2, and OCT3 occurred (i.e., no kinetic parameters or uptake ratio <2 without significance))","0 (no transport by OCT1, OCT2, and OCT3 occurred (i.e., no kinetic parameters or uptake ratio <2 without significance))",,,,,,
"Nc1ccn([C@@H]2CS[C@H](CO)O2)c(=O)n1 [Lamivudine, lamivudine]",,,,,"0 (no transport by OCT1, OCT2, and OCT3 occurred (i.e., no kinetic parameters or uptake ratio <2 without significance))",reduction in uptake,,,,,
"C[C@](N)(Cc1ccc(O)c(O)c1)C(=O)O [Methyldopa, L-(–)-α-methyldopa]",,,"0 (no transport by OCT1, OCT2, and OCT3 occurred (i.e., no kinetic parameters or uptake ratio <2 without significance))",+/− (poor transport with a Clint < 5 or ratio between 1–2 with statistical significance (p < 0.05)),"0 (no transport by OCT1, OCT2, and OCT3 occurred (i.e., no kinetic parameters or uptake ratio <2 without significance))",,5.94 ± 4.63 µL/mg Protein/min,5.94 µL/mg Protein/min,32.2 µM,488 pmol/mg protein/min,15.1 µL/min/mg
